Bridge positions count the residues as written; N and C are the ends. Primed or numbered codes have the meaning given here. Peptide text beside a SMILES is read from it. C(Alexa680) = cysteine labeled with Alexa680 (AlexaFluor680); PEG6′ = PEG6 spacer
Key:
[1] = tested on: target expressing cells previously incubated with the NbALFA×anti-Target Adaptor-Protein; test: FACS cell binding analysis of linear and cyclic ALFA-peptides (AlexaFluor680); assay type: cell-based; conditions: for binding to target expressing cells (AlexaFluor680 signal): 4 nM to 1024 nM peptide, 30 min at 4° C., after 100 nM NbALFA×anti-Target Adaptor-Protein; for binding on the controls: target-negative cells, pre-incubation with PBS or NbALFA×non-binder
Protocol: Cells were seeded in a 96-well microtiter plate (round button) to a final density of 2×10^5 and incubated in the presence of 100 nM NbALFA×anti-Target purified Adaptor-Protein (binds with one moiety to ALFA peptide and with the other moiety to cell presented target) or, as a negative control in the presence of 100 nM NbALFA×non-binder (binds with one moiety to the ALFA peptide and with the other moiety to a target which is not available in this experiment) or PBS for 30 min at 4° C. Cells were then washed and incubated with different concentrations (4 nM, 16 nM, 64 nM, 256 nM, and 1024 nM) of the linear [Ac(C-Alexa680)(PEG6)PSRLEEELRRRLTE-NH2] or cyclic [Ac(C-Alexa680)(PEG6)PSRLE(E)ELR(K)RLTE-NH2] ALFA peptide for another 30 min at 4° C. After rewashing, the cells were measured in FACS Canto II (BD Biosciences). AlexaFluor680 signal was used to detect the binding of ALFA peptides. Therefore, excitation Laser Line 633 nm was used to detect the AlexaFluor 680 signal.

[2] = Plasma stability, mouse plasma; conditions: for remaining at 2 h, 10 µM / remaining at 6 h, 10 µM / remaining at 24 h, 10 µM: Balb C, Li-heparin plasma; for remaining at 2 h, 10 µM / remaining at 6 h, 10 µM / remaining at 24 h, 10 µM / half-life: mouse; for half-life: plasma
[3] = molecular target: NbALFA; test: SPR measurements of NbALFA binding (Biacore T200, multi cycle kinetics, 1:1 binding model); conditions: for Kd / ka / kd: 25° C., HBS-EP+ buffer, biotinylated NbALFA captured
Procedure, shortened: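 NbALFA captured via biotin on CAPture chip flow cell 2, streptavidin quenched with biocytin; multi-cycle kinetics at 25° C in HBS-EP+, surface regenerated between cycles. Responses double-referenced (FC2−FC1, minus 0 nM blank) and fitted to a 1:1 binding model.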

[4] = tested on: anti-ALFA VHH; test: binding affinity to the anti-ALFA VHH (log(agonist) vs. response, variable slope); conditions: for LogEC50: best-fit values, log(agonist) vs. response, variable slope; for EC50: binding to anti-ALFA VHH
[5] = Plasma stability, human plasma; conditions: for remaining at 2 h, 10 µM / remaining at 6 h, 10 µM: human Li-heparin plasma; for half-life: plasma
[6] = mouse plasma, 37° C., timepoint 0 h
[7] = mouse plasma, 37° C., timepoint 0 h, calibration range 0.1 to 10 μM
[8] = mouse plasma, 37° C., timepoint 2 h
[9] = mouse plasma, 37° C., timepoint 6 h
[10] = mouse plasma, 37° C., timepoint 24 h
[11] = Half-life time, mouse plasma, 37° C., incubation 24 h (triplicates) or 6 h (duplicates)
[12] = human plasma, 37° C., timepoint 0 h
[13] = human plasma, 37° C., timepoint 0 h, calibration range 0.1 to 10 μM
[14] = human plasma, 37° C., timepoint 2 h
[15] = human plasma, 37° C., timepoint 6 h
[16] = human plasma, 37° C., timepoint 24 h
[17] = human, Half-life time, human plasma, 37° C., incubation 24 h (triplicates) or 6 h (duplicates)

Ac(C-Alexa680)(PEG6)PSRLEEELRRRLTE-NH2 ({Ac-C(Alexa680)-PEG6′}-PSRLEEELRRRLTE-NH2) [linear ALFA peptide, linear ALFA-peptide conjugated to AlexaFluor680, reference compound]
binding to target expressing cells (AlexaFluor680 signal) [1]: bind only to target expressing cells previously incubated with the NbALFA×anti-Target Adaptor-Protein
binding on the controls [1]: No binding

Ac(C-Alexa680)(PEG6)PSRLE(E)ELR(K)RLTE-NH2 [cyclic ALFA peptide]
binding to target expressing cells (AlexaFluor680 signal) [1]: bind only to target expressing cells previously incubated with the NbALFA×anti-Target Adaptor-Protein
binding on the controls [1]: No binding

CC(=O)N[C@@H](CO)C(=O)N[C@@H](CCCNC(=N)N)C(=O)N[C@@H](CC(C)C)C(=O)N[C@@H](CCC(=O)O)C(=O)N[C@H]1CCC(=O)NCCCC[C@@H](C(=O)N[C@@H](CCCNC(=N)N)C(=O)N[C@@H](CC(C)C)C(=O)N[C@H](C(=O)N[C@@H](CCC(=O)O)C(N)=O)[C@@H](C)O)NC(=O)[C@H](CCCNC(=N)N)NC(=O)[C@H](CC(C)C)NC(=O)[C@H](CCC(=O)O)NC1=O [SD15194, Ac-Ser-Arg-Leu-Glu-(cyclo5)Glu-Glu-Leu-Arg-(cyclo9)Lys-Arg-Leu-Thr-Glu-NH2] (Ac-SRLEEELRKRLTE-NH2; lactam 5-9)
remaining at 2 h, 10 µM [2]: 95.5%
remaining at 6 h, 10 µM [2]: 85.4%
remaining at 24 h, 10 µM [2]: 62.3%
Half-life time ([2]; mouse plasma, 37° C., incubation 24 h (triplicates) or 6 h (duplicates), listed as SD 00015194): 35.69 h
Conc. (% of T0) [2, 6]: 100.0 % of T0
Mean (compound concentration) [2, 6]: 2.57
Tube 2 (compound concentration) [2, 6]: 2.488
Tube 3 (compound concentration) [2, 6]: 2.617
Tube 1 (compound concentration) [2, 7]: 2.606
Mean (compound concentration) [2, 8]: 2.46
Tube 1 (compound concentration) [2, 8]: 2.526
Tube 2 (compound concentration) [2, 8]: 2.467
Tube 3 (compound concentration) [2, 8]: 2.373
Mean (compound concentration) [2, 9]: 2.20
Tube 1 (compound concentration) [2, 9]: 2.178
Tube 2 (compound concentration) [2, 9]: 2.256
Tube 3 (compound concentration) [2, 9]: 2.154
Mean (compound concentration) [2, 10]: 1.60
Tube 1 (compound concentration) [2, 10]: 1.543
Tube 2 (compound concentration) [2, 10]: 1.638
Tube 3 (compound concentration) [2, 10]: 1.62
half-life ([2]; Flag (half-life, assay exceeded), mouse plasma, 37° C.): > 24 h
half-life [2, 11]: > 24 h
Kd [3]: 0.0376 nM
ka [3]: 1.78e+07 M⁻¹ s⁻¹
kd [3]: 0.00067 s⁻¹
binding with respect to NbALFA ([3]; in words): very good binding
LogEC50 [4]: 0.7763
EC50 [4]: 5.97 nM
EC50 ([4]; listed as Ac_5E-9Cyclo_ALFA): 6 nM
Half-life time ([5]; human plasma, 37° C., incubation 24 h (triplicates) or 6 h (duplicates), listed as SD 00015194): 33.48 h
Conc. (% of T0) [5, 12]: 100.0 % of T0
Mean (compound concentration) [5, 12]: 2.26
Tube 2 (compound concentration) [5, 12]: 2.271
Tube 3 (compound concentration) [5, 12]: 2.302
Tube 1 (compound concentration) [5, 13]: 2.215
Mean (compound concentration) [5, 14]: 2.09
Tube 1 (compound concentration) [5, 14]: 2.086
Tube 2 (compound concentration) [5, 14]: 2.052
Tube 3 (compound concentration) [5, 14]: 2.117
Mean (compound concentration) [5, 15]: 1.99
Tube 1 (compound concentration) [5, 15]: 1.884
Tube 2 (compound concentration) [5, 15]: 2.057
Tube 3 (compound concentration) [5, 15]: 2.041
Mean (compound concentration) [5, 16]: 1.36
Tube 1 (compound concentration) [5, 16]: 1.322
Tube 2 (compound concentration) [5, 16]: 1.377
Tube 3 (compound concentration) [5, 16]: 1.368
remaining at 24 h, 10 µM ([5]; human, Li-heparin plasma): 59.9%
remaining at 2 h, 10 µM ([5]; human): 92.1%
remaining at 6 h, 10 µM ([5]; human): 88.1%
half-life ([5]; human, Flag (half-life, assay exceeded), human plasma, 37° C.): > 24 h
half-life [5, 17]: > 24 h

CC(=O)N[C@@H](CO)C(=O)N[C@@H](CCCNC(=N)N)C(=O)N[C@@H](CC(C)C)C(=O)N[C@@H](CCC(=O)O)C(=O)N[C@H]1CCC(=O)NCCCC[C@@H](C(=O)N[C@@H](CCCNC(=N)N)C(=O)N[C@@H](CCCNC(=N)N)C(=O)N[C@@H](CC(C)C)C(=O)N[C@H](C(=O)N[C@@H](CCC(=O)O)C(N)=O)[C@@H](C)O)NC(=O)[C@H](CC(C)C)NC(=O)[C@H](CCC(=O)O)NC1=O [SD15192, Ac-Ser-Arg-Leu-Glu-(cyclo5)Glu-Glu-Leu-(cyclo8)Lys-Arg-Arg-Leu-Thr-Glu-NH2] (Ac-SRLEEELKRRLTE-NH2; lactam 5-8)
remaining at 2 h, 10 µM [2]: 85.9%
remaining at 6 h, 10 µM [2]: 65.7%
remaining at 24 h, 10 µM [2]: 23.9%
Conc. (% of T0) [2, 6]: 100.0 % of T0
Mean (compound concentration) [2, 6]: 2.70
Tube 2 (compound concentration) [2, 6]: 2.705
Tube 3 (compound concentration) [2, 6]: 2.658
Tube 1 (compound concentration) [2, 7]: 2.731
Mean (compound concentration) [2, 8]: 2.32
Tube 1 (compound concentration) [2, 8]: 2.366
Tube 2 (compound concentration) [2, 8]: 2.256
Tube 3 (compound concentration) [2, 8]: 2.33
Mean (compound concentration) [2, 9]: 1.77
Tube 1 (compound concentration) [2, 9]: 1.851
Tube 2 (compound concentration) [2, 9]: 1.679
Tube 3 (compound concentration) [2, 9]: 1.791
Mean (compound concentration) [2, 10]: 0.64
Tube 1 (compound concentration) [2, 10]: 0.637
Tube 2 (compound concentration) [2, 10]: 0.656
Tube 3 (compound concentration) [2, 10]: 0.638
half-life [2, 11]: 11.8 h
Kd [3]: 0.0551 nM
ka [3]: 1.05e+07 M⁻¹ s⁻¹
kd [3]: 0.000577 s⁻¹
LogEC50 [4]: 0.7765
EC50 [4]: 5.98 nM
Conc. (% of T0) [5, 12]: 100.0 % of T0
Mean (compound concentration) [5, 12]: 2.56
Tube 2 (compound concentration) [5, 12]: 2.471
Tube 3 (compound concentration) [5, 12]: 2.553
Tube 1 (compound concentration) [5, 13]: 2.667
Mean (compound concentration) [5, 14]: 1.76
Tube 1 (compound concentration) [5, 14]: 1.788
Tube 2 (compound concentration) [5, 14]: 1.757
Tube 3 (compound concentration) [5, 14]: 1.731
Mean (compound concentration) [5, 15]: 0.88
Tube 1 (compound concentration) [5, 15]: 0.876
Tube 2 (compound concentration) [5, 15]: 0.868
Tube 3 (compound concentration) [5, 15]: 0.883
Tube 1 (compound concentration) [5, 16]: 0.031
Tube 2 (compound concentration) [5, 16]: 0.036
Tube 3 (compound concentration) [5, 16]: 0.046
remaining at 2 h, 10 µM ([5]; human): 68.6%
remaining at 6 h, 10 µM ([5]; human): 34.2%
half-life [5, 17]: 3.89 h
